Drawing on publication PMC6704710, “Preclinical evaluation of 3D185, a novel potent inhibitor of FGFR1/2/3 and CSF-1R, in FGFR-dependent and macrophage-dominant cancer models” (Journal of Experimental & Clinical Cancer Research : CR, 2019), this text covers inhibition for 1 compound.

Common to all, as to assay: Eurofins kinase panel
What all share (assay type): biochemical
Common to all, as to settings: read-out: Inhibition rate (%)

One assay addresses T1, B-Raf(V599E)(h) (Homo sapiens, UniProt P15056, V600E).
T1 construct: purchased Eurofins (KinaseProfiler)

A further assay deals with T2, CDK2/cyclinE(h) (Homo sapiens, UniProt P24941).
T2 construct: purchased Eurofins (KinaseProfiler)

The target of a further assay is T3, CDK7/cyclinH/MAT1(h) (Homo sapiens, UniProt P50613).
T3 construct: purchased Eurofins (KinaseProfiler)
T3 sequence (P50613 whole entry): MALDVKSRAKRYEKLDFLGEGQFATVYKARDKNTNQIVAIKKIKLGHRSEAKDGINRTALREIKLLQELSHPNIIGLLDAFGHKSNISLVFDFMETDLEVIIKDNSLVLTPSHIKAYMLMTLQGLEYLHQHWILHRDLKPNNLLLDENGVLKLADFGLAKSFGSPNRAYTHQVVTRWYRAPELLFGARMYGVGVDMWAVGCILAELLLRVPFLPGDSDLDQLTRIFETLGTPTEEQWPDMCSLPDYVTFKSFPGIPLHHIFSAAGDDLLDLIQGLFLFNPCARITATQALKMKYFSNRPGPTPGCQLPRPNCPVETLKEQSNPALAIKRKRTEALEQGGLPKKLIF
T3 sequence (P51946 whole entry partner): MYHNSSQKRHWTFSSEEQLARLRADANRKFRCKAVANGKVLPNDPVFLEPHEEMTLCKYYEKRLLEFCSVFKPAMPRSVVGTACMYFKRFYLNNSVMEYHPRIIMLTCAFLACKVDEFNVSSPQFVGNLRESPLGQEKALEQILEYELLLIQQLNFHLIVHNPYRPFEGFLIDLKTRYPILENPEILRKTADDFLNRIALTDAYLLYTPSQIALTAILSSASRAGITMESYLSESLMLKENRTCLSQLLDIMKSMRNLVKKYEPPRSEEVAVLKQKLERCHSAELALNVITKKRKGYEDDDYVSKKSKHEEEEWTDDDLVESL
T3 sequence (P51948 whole entry partner): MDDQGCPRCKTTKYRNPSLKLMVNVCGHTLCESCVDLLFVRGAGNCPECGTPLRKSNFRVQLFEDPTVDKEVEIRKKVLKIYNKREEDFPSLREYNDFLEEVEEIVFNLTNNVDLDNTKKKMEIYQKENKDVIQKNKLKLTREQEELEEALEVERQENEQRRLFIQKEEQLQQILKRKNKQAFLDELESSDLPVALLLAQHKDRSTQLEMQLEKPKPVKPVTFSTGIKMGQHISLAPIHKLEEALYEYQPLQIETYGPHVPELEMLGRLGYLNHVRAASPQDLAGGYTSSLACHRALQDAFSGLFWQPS

For another assay, the target named is T4, NEK11(h) (Homo sapiens, UniProt Q8NG66).
T4 construct: purchased Eurofins (KinaseProfiler)
T4 sequence (Q8NG66 1-645): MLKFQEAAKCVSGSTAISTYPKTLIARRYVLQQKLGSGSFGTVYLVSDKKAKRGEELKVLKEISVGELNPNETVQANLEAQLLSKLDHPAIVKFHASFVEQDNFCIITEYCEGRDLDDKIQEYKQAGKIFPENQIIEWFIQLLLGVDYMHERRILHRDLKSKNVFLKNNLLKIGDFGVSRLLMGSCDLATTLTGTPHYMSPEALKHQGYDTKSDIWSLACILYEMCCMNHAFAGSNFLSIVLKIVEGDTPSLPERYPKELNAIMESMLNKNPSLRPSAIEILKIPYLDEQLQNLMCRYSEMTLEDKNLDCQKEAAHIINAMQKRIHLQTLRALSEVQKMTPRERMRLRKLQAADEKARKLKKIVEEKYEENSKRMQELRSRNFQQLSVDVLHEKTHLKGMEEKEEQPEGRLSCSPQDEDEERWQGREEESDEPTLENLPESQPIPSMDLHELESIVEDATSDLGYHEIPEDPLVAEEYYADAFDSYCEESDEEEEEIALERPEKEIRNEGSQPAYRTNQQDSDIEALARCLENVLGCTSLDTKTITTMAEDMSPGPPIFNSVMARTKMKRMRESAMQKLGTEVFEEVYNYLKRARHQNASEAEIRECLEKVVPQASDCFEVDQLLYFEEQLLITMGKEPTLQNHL

A further assay concerns the target T5, PRAK(h) (Homo sapiens, UniProt Q8IW41).
T5 construct: purchased Eurofins (KinaseProfiler)
T5 sequence (Q8IW41 1-473): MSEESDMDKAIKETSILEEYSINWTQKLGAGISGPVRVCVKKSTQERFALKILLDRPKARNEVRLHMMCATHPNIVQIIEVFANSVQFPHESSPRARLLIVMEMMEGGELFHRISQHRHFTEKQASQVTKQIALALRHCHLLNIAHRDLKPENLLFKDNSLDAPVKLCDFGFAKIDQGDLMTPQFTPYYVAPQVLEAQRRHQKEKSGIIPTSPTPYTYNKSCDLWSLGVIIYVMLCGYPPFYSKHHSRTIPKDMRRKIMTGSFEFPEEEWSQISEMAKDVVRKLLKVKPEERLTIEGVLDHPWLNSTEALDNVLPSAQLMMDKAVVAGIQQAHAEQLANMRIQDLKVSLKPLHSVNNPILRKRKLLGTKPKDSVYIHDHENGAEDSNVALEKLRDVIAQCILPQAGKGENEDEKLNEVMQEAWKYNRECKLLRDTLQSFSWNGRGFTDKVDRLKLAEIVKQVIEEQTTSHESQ

A further assay deals with T6, SNRK(h) (Homo sapiens, UniProt Q9NRH2).
T6 construct: purchased Eurofins (KinaseProfiler)
T6 sequence (Q9NRH2 1-765): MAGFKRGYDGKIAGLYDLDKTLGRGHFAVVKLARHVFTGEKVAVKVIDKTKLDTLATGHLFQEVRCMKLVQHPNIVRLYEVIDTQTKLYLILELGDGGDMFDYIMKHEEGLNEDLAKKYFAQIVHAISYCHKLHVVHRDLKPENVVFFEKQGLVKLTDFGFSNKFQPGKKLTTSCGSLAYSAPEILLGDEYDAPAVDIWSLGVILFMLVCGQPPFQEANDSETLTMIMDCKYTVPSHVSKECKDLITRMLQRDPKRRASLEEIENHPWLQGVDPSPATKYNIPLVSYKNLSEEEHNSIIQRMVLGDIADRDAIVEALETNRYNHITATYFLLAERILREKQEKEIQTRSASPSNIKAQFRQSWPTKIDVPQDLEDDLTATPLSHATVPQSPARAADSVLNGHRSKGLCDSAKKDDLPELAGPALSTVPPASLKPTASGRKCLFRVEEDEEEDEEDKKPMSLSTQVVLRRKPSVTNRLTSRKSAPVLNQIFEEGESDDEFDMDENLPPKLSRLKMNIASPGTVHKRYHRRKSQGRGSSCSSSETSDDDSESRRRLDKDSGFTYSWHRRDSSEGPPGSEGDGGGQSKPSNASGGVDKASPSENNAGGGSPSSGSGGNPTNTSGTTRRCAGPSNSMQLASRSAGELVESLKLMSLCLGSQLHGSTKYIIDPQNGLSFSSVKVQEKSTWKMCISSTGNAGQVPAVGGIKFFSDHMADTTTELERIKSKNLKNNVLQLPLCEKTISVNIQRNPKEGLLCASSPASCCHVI

Another assay concerns the target T7, STK32B(h) (Homo sapiens, UniProt Q9NY57).
T7 construct: purchased Eurofins (KinaseProfiler)

A further assay concerns the target T8, ULK3(h) (Homo sapiens, UniProt Q6PHR2).
T8 construct: purchased Eurofins (KinaseProfiler)
T8 sequence (Q6PHR2 1-472): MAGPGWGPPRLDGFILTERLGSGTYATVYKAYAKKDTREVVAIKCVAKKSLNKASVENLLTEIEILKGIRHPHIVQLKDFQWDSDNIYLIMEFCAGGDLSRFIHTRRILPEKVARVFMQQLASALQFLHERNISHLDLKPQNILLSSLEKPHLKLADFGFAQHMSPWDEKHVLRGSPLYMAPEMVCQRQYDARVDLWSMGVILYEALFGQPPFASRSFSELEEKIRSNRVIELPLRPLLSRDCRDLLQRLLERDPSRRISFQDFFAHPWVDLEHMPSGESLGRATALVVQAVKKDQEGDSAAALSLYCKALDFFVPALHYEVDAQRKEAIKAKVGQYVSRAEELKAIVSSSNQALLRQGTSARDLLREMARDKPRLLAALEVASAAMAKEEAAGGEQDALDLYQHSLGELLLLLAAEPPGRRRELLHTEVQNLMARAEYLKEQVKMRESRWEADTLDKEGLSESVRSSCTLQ

T1 sequence (P15056 417-766 V600E limits assumed): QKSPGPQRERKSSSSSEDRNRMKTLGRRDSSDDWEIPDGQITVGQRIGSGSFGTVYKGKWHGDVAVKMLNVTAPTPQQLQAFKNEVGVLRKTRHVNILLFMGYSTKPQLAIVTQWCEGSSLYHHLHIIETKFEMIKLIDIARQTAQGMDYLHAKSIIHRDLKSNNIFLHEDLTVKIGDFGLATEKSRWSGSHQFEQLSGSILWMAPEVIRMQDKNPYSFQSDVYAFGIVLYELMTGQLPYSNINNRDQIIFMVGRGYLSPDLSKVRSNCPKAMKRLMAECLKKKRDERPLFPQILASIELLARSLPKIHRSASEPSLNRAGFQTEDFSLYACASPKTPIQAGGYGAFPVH
T7 sequence (Q9NY57 whole entry): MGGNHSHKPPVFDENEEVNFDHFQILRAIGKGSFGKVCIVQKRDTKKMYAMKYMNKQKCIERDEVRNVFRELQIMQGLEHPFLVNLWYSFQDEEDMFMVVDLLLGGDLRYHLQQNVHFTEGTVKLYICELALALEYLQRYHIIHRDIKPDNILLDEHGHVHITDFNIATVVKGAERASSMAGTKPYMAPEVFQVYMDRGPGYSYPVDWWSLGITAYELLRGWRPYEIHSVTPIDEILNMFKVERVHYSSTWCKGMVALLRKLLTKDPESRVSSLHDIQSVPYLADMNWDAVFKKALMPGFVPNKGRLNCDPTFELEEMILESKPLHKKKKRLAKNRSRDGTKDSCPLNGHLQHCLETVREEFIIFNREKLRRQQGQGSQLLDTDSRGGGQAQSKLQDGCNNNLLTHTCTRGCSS

Turning to `COc1cc(OC)c(Cl)c(-c2ccc3c(NC(=O)c4ccc(N5CCNC(C)(C)C5)cc4)n[nH]c3n2)c1Cl` [3D185], the inhibition at 0.01 µM on B-Raf(V599E)(h) (10 nM) is -1%; at CDK2/cyclinE(h) (10 nM) it was -5%; on CDK7/cyclinH/MAT1(h) (10 nM) it was 12%; at NEK11(h) (10 nM) it was 5%; on PRAK(h) (10 nM), -18%; on SNRK(h) (10 nM), -8%. Also, the results for the inhibition at 0.01 µM on STK32B(h) (10 nM) and on ULK3(h) (10 nM) were 1% and -8%, respectively. For the same compound, the inhibition at 0.1 µM was -6% at B-Raf(V599E)(h) (100 nM); 2% at CDK2/cyclinE(h) (100 nM); 11% at CDK7/cyclinH/MAT1(h) (100 nM); 15% at NEK11(h) (100 nM); -24% on PRAK(h) (100 nM); -42% at SNRK(h) (100 nM). Moreover, the inhibition at 0.1 µM at STK32B(h) (100 nM) stood at 1%; at ULK3(h) (100 nM), 2%. The inhibition at 1 µM at B-Raf(V599E)(h) (1000 nM) was 7%; on CDK2/cyclinE(h) (1000 nM), 10%; on CDK7/cyclinH/MAT1(h) (1000 nM), 11%; on NEK11(h) (1000 nM), 37%; at PRAK(h) (1000 nM), -10%; on SNRK(h) (1000 nM), -44%. Moreover, the inhibition at 1 µM on STK32B(h) (1000 nM) was 0%; on ULK3(h) (1000 nM), -1%.
